Test [1] deals with SK-OV-3. Put plainly: In vitro cytotoxic activity against SKOV3 cell line after 4 hours at less than 0.01 % of oxygen in gas phase. The class given is functional, Homo sapiens.
For test [2], the system named is SK-OV-3. The experiment in a line: In vitro cytotoxic activity against SKOV3 cell line after 1 hour at less than 0.01 % of oxygen in gas phase. The class given is functional, Homo sapiens.
The test system of test [3] is SK-OV-3. Put plainly: In vitro cytotoxicity against SKOV3 cell proliferation after 18 hr exposure in presence of 1 mM NADH + NTR. The conditions noted are these: Homo sapiens, SK-OV-3, 18 h. The test is classed as functional, cell-based.
The test system of test [4] is SK-OV-3. Put plainly: In vitro cytotoxic activity against SKOV3 cell line after 4 hours at 20% oxygen present in gas phase. The class given is functional, Homo sapiens.
Test [5] relates to SK-OV-3. Put plainly: In vitro cytotoxic activity against SKOV3 cell line after 1 hour at 20% oxygen present in gas phase. The test is classed as functional, Homo sapiens.
The subject of test [6] is SK-OV-3. The experiment in a line: In vitro cytotoxicity against SKOV3 cell proliferation after 18 hr exposure in absence of reagent. Particulars: Homo sapiens, SK-OV-3, 18 h. The test is classed as functional, cell-based.
Test [7] has as its system SK-OV-3. The experiment in a line: In vitro cytotoxicity against SKOV3 cell proliferation after 18 hr exposure in presence of 1 mM NADH. The class given is functional, cell-based. The conditions noted are these: Homo sapiens, SK-OV-3, 18 h.
The test system of a further test is SC-3. Put plainly: In vitro cytotoxicity against SC3.2 cell proliferation after 18 hr exposure. The test is classed as functional, cell-based, Homo sapiens. Particulars: Mus musculus, SC-3, 18 h.

The text below walks through data of ChEMBL document CHEMBL1131825, “A 2-nitroimidazole carbamate prodrug of 5-amimo-1-(chloromethyl)-3-[(5,6,7-trimethoxyindol-2-yl)carbony l]-1,2-dihydro-3H--benz[E]indole (amino-seco-CBI-TMI) for use with ADEPT and GDEPT” (Bioorg Med Chem Lett, 1999).

A word on the IC50: it is the midpoint of a concentration-inhibition curve. For `COc1cc2cc(C(=O)N3CC(CCl)c4c3cc(NC(=O)OCc3cnc([N+](=O)[O-])n3C)c3ccccc43)[nH]c2c(OC)c1OC` (configuration not stated), the C10 with SK-OV-3 [1] was determined as 15 nM; in the test on SK-OV-3 [2], 135 nM; with SK-OV-3 [4] it was 600 nM; in the test on SK-OV-3 [5], 2100 nM. For the same molecule, the IC50 in the test on SK-OV-3 [3] was found to be 8 nM; with SK-OV-3 [6], 75 nM; in the test on SK-OV-3 [7], 57 nM; in the test with SC-3, 3.5 nM.

As for `COc1cc2cc(C(=O)N3CC(CCl)c4c3cc(N)c3ccccc43)[nH]c2c(OC)c1OC` (configuration not stated), the 50% inhibitory concentration (IC50) with SK-OV-3 [3] came out at 1.14 nM; with SK-OV-3 [6] it was 1.1 nM; with SK-OV-3 [7], 0.96 nM; in the test with SC-3, 2.17 nM.
